Where “and” joins values, the source holds several entries; their conditions need not be identical. Identical values can stand only once. Inconclusive results and toxic doses are left out. Cut-off read from the data, not from the text of the source: active = T/C of 150% or more; inactive = T/C below 125%.
System: L1210 leukemia ip in BDF1 mice, survival T/C
Assay: NCI In Vivo Anticancer Drug Screen. Data for tumor model L1210 Leukemia (intraperitoneal) in B6D2F1 (BDF1) mice
Conditions: endpoint: mean survival time, higher = longer survival
Summary of the method: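 In this screen, tumor-bearing mice given compound are compared to those given vehicle, and their survival values are reported as a treated-to-control quotient.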

[1] = dose: 100.0 mg/kg/injection, schedule: Q04DX002 (ip), vehicle: Klucel (hydroxypropylcellulose) (HPC)
[2] = dose: 200.0 mg/kg/injection, schedule: Q04DX002 (ip), vehicle: Klucel (hydroxypropylcellulose) (HPC)
[3] = dose: 400.0 mg/kg/injection, schedule: Q04DX002 (ip), vehicle: Klucel (hydroxypropylcellulose) (HPC)
[4] = dose: 50.0 mg/kg/injection, schedule: Q04DX003 (ip), vehicle: Klucel (hydroxypropylcellulose) (HPC)
[5] = dose: 100.0 mg/kg/injection, schedule: Q01DX009 (ip), vehicle: Klucel (hydroxypropylcellulose) (HPC)
[6] = dose: 100.0 mg/kg/injection, schedule: Q04DX003 (ip), vehicle: Klucel (hydroxypropylcellulose) (HPC)
[7] = dose: 100.0 mg/kg/injection, schedule: Q01DX001 (ip), vehicle: other
[8] = dose: 200.0 mg/kg/injection, schedule: Q01DX001 (ip), vehicle: other
[9] = dose: 400.0 mg/kg/injection, schedule: Q01DX001 (ip), vehicle: other
[10] = dose: 100.0 mg/kg/injection, schedule: Q01DX001 (ip), vehicle: Klucel (hydroxypropylcellulose) (HPC)
[11] = dose: 200.0 mg/kg/injection, schedule: Q01DX001 (ip), vehicle: Klucel (hydroxypropylcellulose) (HPC)
[12] = dose: 400.0 mg/kg/injection, schedule: Q01DX001 (ip), vehicle: Klucel (hydroxypropylcellulose) (HPC)
[13] = dose: 200.0 mg/kg/injection, schedule: Q04DX003 (ip), vehicle: Klucel (hydroxypropylcellulose) (HPC)

Measured: T/C

ON=c1c2ccccc2c2ccccc2c2ccccc12
inactive: dose: 75.0 mg/kg/injection, schedule: Q04DX002 (ip), vehicle: gum acacia 109 % of control | dose: 150.0 mg/kg/injection, schedule: Q04DX002 (ip), vehicle: gum acacia 105 % of control | dose: 300.0 mg/kg/injection, schedule: Q04DX002 (ip), vehicle: gum acacia 105 % of control

COC(=O)C1C(=O)CC2(C)CCCCC12 (configuration not stated)
inactive: [1] 97 % of control | [2] 100 % of control | [3] 93 % of control

CC/C(=C/c1ccc(OC)c(OC)c1)[N+](=O)[O-]
inactive: dose: 25.0 mg/kg/injection, schedule: Q01DX009 (ip), vehicle: Klucel (hydroxypropylcellulose) (HPC) 98 % of control | dose: 50.0 mg/kg/injection, schedule: Q01DX009 (ip), vehicle: Klucel (hydroxypropylcellulose) (HPC) 101 % of control | [4] 96 % of control | [5] 91 % of control | [6] 104 % of control

Oc1ccc2ccccc2c1N=Nc1cc[c]([Hg][Cl])cc1
inactive: dose: 5.0 mg/kg/injection, schedule: Q01DX001 (ip), vehicle: saline 91 % of control | dose: 10.0 mg/kg/injection, schedule: Q01DX001 (ip), vehicle: saline 107 % of control | dose: 20.0 mg/kg/injection, schedule: Q01DX001 (ip), vehicle: saline 96 % of control | dose: 40.0 mg/kg/injection, schedule: Q01DX001 (ip), vehicle: saline 100 % of control

C=CCC1(O)C(c2ccccc2)=C(c2ccccc2)C(c2ccccc2)=C1c1ccccc1
inactive: dose: 50.0 mg/kg/injection, schedule: Q01DX001 (ip), vehicle: other 98 % of control | [7] 96 % of control | [8] 98 % of control | [9] 98 % of control

CC12C=CC(CC1)C2O (configuration not stated)
inactive: dose: 100.0 mg/kg/injection, schedule: Q01DX009 (ip), vehicle: saline with Tween-80 105 % of control | dose: 100.0 mg/kg/injection, schedule: Q04DX003 (ip), vehicle: saline with Tween-80 100 % of control | dose: 200.0 mg/kg/injection, schedule: Q01DX009 (ip), vehicle: saline with Tween-80 96 % of control | dose: 200.0 mg/kg/injection, schedule: Q04DX003 (ip), vehicle: saline with Tween-80 96 % of control | dose: 400.0 mg/kg/injection, schedule: Q04DX003 (ip), vehicle: saline with Tween-80 98 % of control

C=CCC[P+](c1ccccc1)(c1ccccc1)c1ccccc1
inactive: dose: 12.5 mg/kg/injection, schedule: Q04DX003 (ip), vehicle: Klucel (hydroxypropylcellulose) (HPC) 97 % of control | dose: 16.0 mg/kg/injection, schedule: Q04DX003 (ip), vehicle: Klucel (hydroxypropylcellulose) (HPC) 90 % of control | dose: 25.0 mg/kg/injection, schedule: Q04DX003 (ip), vehicle: Klucel (hydroxypropylcellulose) (HPC) 104 % of control | dose: 35.0 mg/kg/injection, schedule: Q04DX003 (ip), vehicle: Klucel (hydroxypropylcellulose) (HPC) 101 % of control | [4] 95 % of control and 103 % of control

COC(=O)c1ccccc1N=NNc1ccc(C)c(Cl)c1
inactive: dose: 100.0 mg/kg/injection, schedule: Q04DX002 (ip), vehicle: saline with Tween-80 94 % of control | dose: 200.0 mg/kg/injection, schedule: Q04DX002 (ip), vehicle: saline with Tween-80 94 % of control | dose: 400.0 mg/kg/injection, schedule: Q04DX002 (ip), vehicle: saline with Tween-80 87 % of control

NC(N)=NC(N)=NCCc1ccccc1
inactive: dose: 100.0 mg/kg/injection, schedule: Q01DX001 (ip), vehicle: saline 94 % of control | dose: 200.0 mg/kg/injection, schedule: Q01DX001 (ip), vehicle: saline 94 % of control

NC(CO)C(O)c1ccc(-c2ccccc2)cc1 (configuration not stated)
inactive: dose: 75.0 mg/kg/injection, schedule: Q04DX003 (ip), vehicle: Klucel (hydroxypropylcellulose) (HPC) 108 % of control | [10] 94 % of control | dose: 150.0 mg/kg/injection, schedule: Q04DX003 (ip), vehicle: Klucel (hydroxypropylcellulose) (HPC) 106 % of control | [11] 92 % of control | dose: 300.0 mg/kg/injection, schedule: Q04DX003 (ip), vehicle: Klucel (hydroxypropylcellulose) (HPC) 101 % of control | [12] 92 % of control

CC(C)C1(C)NC(=O)NC1=O (configuration not stated)
inactive: dose: 100.0 mg/kg/injection, schedule: Q04DX003 (ip), vehicle: saline 110 % of control | dose: 200.0 mg/kg/injection, schedule: Q04DX003 (ip), vehicle: saline 105 % of control | dose: 400.0 mg/kg/injection, schedule: Q04DX003 (ip), vehicle: saline 100 % of control

O=C1C=Cc2cccc3cccc1c23
inactive: [6] 98 % of control | [13] 112 % of control

CCC(=O)OCc1cc2ccccc2c(-c2c(OC(=O)CC)c(COC(=O)CC)cc3ccccc23)c1OC(=O)CC
inactive: dose: 100.0 mg/kg/injection, schedule: Q01DX001 (ip), vehicle: saline with Tween-80 106 % of control | dose: 200.0 mg/kg/injection, schedule: Q01DX001 (ip), vehicle: saline with Tween-80 113 % of control | dose: 400.0 mg/kg/injection, schedule: Q01DX001 (ip), vehicle: saline with Tween-80 88 % of control

CCC(=O)c1ccc(NC(=O)Nc2ccc(C(=O)CC)cc2)cc1
inactive: dose: 20.0 mg/kg/injection, schedule: Q01DX009 (ip), vehicle: saline 96 % of control | dose: 40.0 mg/kg/injection, schedule: Q01DX009 (ip), vehicle: saline 93 % of control | dose: 80.0 mg/kg/injection, schedule: Q01DX009 (ip), vehicle: saline 102 % of control | dose: 160.0 mg/kg/injection, schedule: Q01DX009 (ip), vehicle: saline 95 % of control | dose: 320.0 mg/kg/injection, schedule: Q01DX009 (ip), vehicle: saline 92 % of control

CCC(Cl)COP(=O)(CC(Cl)CC)OC(C(C)C)P(=O)(OCC(Cl)CC)OCC(Cl)CC (configuration not stated)
inactive: [10] 108 % of control | [11] 101 % of control | [12] 101 % of control

Cc1ccc(Cl)cc1NC(=O)c1ccc(Cl)cc1Cl
inactive: [5] 110 % of control | [6] 92 % of control | dose: 200.0 mg/kg/injection, schedule: Q01DX009 (ip), vehicle: Klucel (hydroxypropylcellulose) (HPC) 91 % of control | [13] 95 % of control | dose: 400.0 mg/kg/injection, schedule: Q01DX009 (ip), vehicle: Klucel (hydroxypropylcellulose) (HPC) 89 % of control | dose: 400.0 mg/kg/injection, schedule: Q04DX003 (ip), vehicle: Klucel (hydroxypropylcellulose) (HPC) 88 % of control

CCOC(=O)C1CCC(=O)O1 (configuration not stated)
inactive: dose: 100.0 mg/kg/injection, schedule: Q04DX002 (ip), vehicle: saline 104 % of control | dose: 200.0 mg/kg/injection, schedule: Q04DX002 (ip), vehicle: saline 101 % of control | dose: 400.0 mg/kg/injection, schedule: Q04DX002 (ip), vehicle: saline 97 % of control

Cc1ccc(C(=O)Nc2c(N)ncnc2N)cc1[N+](=O)[O-]
inactive: dose: 75.0 mg/kg/injection, schedule: Q01DX001 (ip), vehicle: saline with Tween-80 101 % of control | dose: 150.0 mg/kg/injection, schedule: Q01DX001 (ip), vehicle: saline with Tween-80 98 % of control | dose: 300.0 mg/kg/injection, schedule: Q01DX001 (ip), vehicle: saline with Tween-80 102 % of control

CC1CCC2(OC1)OC1CC3C4CCC5CC(O)CCC5(C)C4CC(=O)OC3(C)C1C2C (configuration not stated)
inactive: [7] 97 % of control | [8] 87 % of control | [9] 92 % of control

CCOC(=O)c1ccccc1C(=O)c1ccccc1
inactive: [1] 118 % of control | [2] 100 % of control | [3] 95 % of control

CCNC(=O)NCc1cc(C)ccc1C
inactive: [1] 111 % of control | [2] 108 % of control | [3] 108 % of control

From PubChem BioAssay AID248 (DTP/NCI, 2004)
